According to US9242883B2, “Pre-treatment of sludge” (THE UNIVERSITY OF QUEENSLAND, priority 2011, dated 2016):
Several values for one entry are separate records, joined by “and”; a condition that tells them apart may be missing. Equal values may be shown once. Read-outs that look alike come from different tables or passages of the source.

Key:
[1] = tested on: bacteria in a full-scale sludge; settings: FNA treated, 48 hours, 500 mgNO2-N/L, pH 6.0, 29 images
Protocol: Similar tests were performed on a full-scale sludge. However, no activity tests were carried out. […] The nitrite concentration applied to the experimental reactor was 500 mgNO2-N/L. pH was maintained at 6.0 in both the control and experimental reactors.

denitrifying biomass [2] = settings: methanol sludge, experimental reactor, 48 hours, FNA approx. 0.97 ppm, pH 6; 16 images
Protocol: 2. A batch experiment was performed at pH 6 for initial biomass activity determination. At the beginning of the test, nitrate and methanol were added. Liquid phase samples were taken every 15 minutes for the analysis of nitrate and methanol. The consumption rates of methanol and nitrate were determined. All other batch tests described below were also conducted at pH 6. 3. Fresh sludge of 2 L was removed from the SBR at the end of a cycle, and equally divided into two batch reactors, namely the control and the experimental reactors. • a. The sludge in the control reactor was kept at pH 6 under mixed conditions for 48 hours; • b. The sludge in the experimental reactor was kept at pH 6 under mixed conditions for 48 hours. […] 4. 24 hours after the above conditions were started, sludge samples of 250 mL each were removed from both the control and the experimental reactors, and batch experiments as described in Step 2 were performed. […] Sludge samples were also removed at 48 hours from both reactors to quantify the live/dead cells using the Live/Dead BacLight Bacterial Viability assay. […] The methanol and nitrate consumptions rates at the end of Day 3, Day 4 and Day 7 were measured through measuring the nitrate and methanol concentrations over a period over one hour each time. […]

[3] = tested on: secondary sludge (denitrifying microorganisms)
Protocol: (§1) In general, primary sludge is readily hydrolysable (Mahmood and Elliott, 2006; Foladori et al., 2010). […] A series of batch tests were conducted through the use of an enriched methonal-utilising denitrifiers culture, which was employed as secondary sludge in this study.

[4] = tested on: secondary sludge (enriched methonal-utilising denitrifiers culture)
Protocol: as §1

secondary sludge = settings: famine conditions, during FNA treatment (FIG. 4)
Source text: NH4+ release rate under famine conditions is an indication of the hydrolysis of intracellular compounds release during the decay of dying cells. This hydrolysis is taken place by the activity of other living microorganisms present in the sludge.

AOB, NOB and OHOs = settings: FNA 0.22-2.47 mgN/L, pH 6, 24 h exposure
Protocol: Sludge was taken out from the parent reactor (SBR) at the end of an aerobic period and then transferred into a batch reactor. Afterwards, ammonium and nitrite stock solutions were added to the batch reactor, resulting in the ammonium and nitrite concentrations of 25 mg NH4-N/L and 20 mg NO2-N/L, respectively. Air was supplied during the whole experiment period (DO was not limiting, i.e. >3 mg/L). pH was controlled in the range of 7.5-8 during the whole experimental period. The activities of AOB and NOB were determined as biomass-specific nitrite+nitrate and nitrate production rates, respectively.
Sludge was taken out from the parent reactor at the end of an aerobic period and then transferred into a batch reactor. Afterwards, sodium acetate and ammonium stock solutions were added to the batch reactor, resulting in the COD and ammonium concentrations of 150 mg COD/L and 20 NH4-N/L, respectively. Air was supplied during the whole experiment period (DO was not limiting, i.e. >3 mg/L). pH was controlled in the range of 7.5-8 during the whole experimental period. The aerobic activity of OHO was determined as biomass-specific COD consumption rates.
The experimental conditions applied in batch testing are set out in Table 6.

denitrifying biomass [5] = settings: for methanol consumption rate / nitrate consumption rate / methanol consumption rate, activity recovery / nitrate consumption rate, activity recovery: experimental reactor
Protocol: Methanol provided the carbon source and nitrate provided the electron acceptor. The following procedure was followed:
1. Sludge removed from the denitrifying SBR (sequencing batch reactor). The biomass was enriched for 5 months in an 8 L reactor with methanol as the carbon source and nitrate as the electron acceptor.
2. A batch experiment was performed at pH 6 for initial biomass activity determination. At the beginning of the test, nitrate and methanol were added. Liquid phase samples were taken every 15 minutes for the analysis of nitrate and methanol. The consumption rates of methanol and nitrate were determined. All other batch tests described below were also conducted at pH 6. 3. Fresh sludge of 2 L was removed from the SBR at the end of a cycle, and equally divided into two batch reactors, namely the control and the experimental reactors. • a. The sludge in the control reactor was kept at pH 6 under mixed conditions for 48 hours; • b. The sludge in the experimental reactor was kept at pH 6 under mixed conditions for 48 hours. […] 4. 24 hours after the above conditions were started, sludge samples of 250 mL each were removed from both the control and the experimental reactors, and batch experiments as described in Step 2 were performed. Before the addition of nitrate and methanol, the sludges were washed with effluent from the parent SBR to ensure that both sludge samples were nitrite-free. 5. The above tests were repeated at 48 hours. 6. Sludge samples were also removed at 48 hours from both reactors to quantify the live/dead cells using the Live/Dead BacLight Bacterial Viability assay. 7. At 48 hours, the experimental reactor was washed with the effluent from the parent SBR to remove the residual nitrite. Nitrate and methanol were then added to the reactor resulting in concentrations of […] and 150 mg/L, respectively. The methanol and nitrate consumptions rates at the end of Day 3, Day 4 and Day 7 were measured through measuring the nitrate and methanol concentrations over a period over one hour each time. […] Experiments with Full-Scale Sludge

[6] = Protocol: In this experiment, a lab-scale sequencing batch reactor (SBR) with a working volume of 8 L was used in this study. The SBR was operated with a cycle time of 6-h, consisting of 10 min anoxic feed, 70 min anoxic reaction, 225 min aerobic reaction, 5 min sludge wasting, 45 min settling and 5 min decanting periods. In each cycle, 2 L of synthetic wastewater containing 400 mg COD and 50 mgN/L TKN including 40 mgNH4+-N/L, made from milk powder and ammonium chloride, along with other trace elements, was pumped into the SBR in the 10 min feed period, resulting in a hydraulic retention time (HRT) of 24 h. Before settling, around 133 ml of mixed liquor was wasted, giving rise to a sludge retention time of 15 days. The SBR was operated at a temperature of 18±2° C., with DO being controlled between 1.5-2.0 mg/L by a programmable logic controller (PLC) in the aerobic period.
50% of the wasted mixed liquor was treated by 2.0 mg HNO2-N/L for approximately 24 h, 30 h, 36 h and 42 h, respectively.
The sludge wasted from the SBR was allowed to settle. […] The other 50% of the sludge was sent to disposal.
A control SBR operating under identical conditions was also fed with the same wastewater, but there was no recycle of any sludge to this reactor.

[7] = Day 1 of exposure, 500 mg NO2-N/L, pH 6, FNA approx. 0.97 ppm
[8] = Day 2 (48 h exposure; time when recovery started), FNA approx. 0.97 ppm, pH 6
[9] = Day 3, after 48 h FNA exposure and nitrite wash-out
[10] = Day 4, after 48 h FNA exposure and nitrite wash-out
[11] = Day 7, after 48 h FNA exposure and nitrite wash-out

## O=NO [FNA, free nitrous acid]
[1]
  Average (% dead cells): 63.6%
Denitrifying biomass [2]
  Average (% dead cells): 40.4%
[3]; longest exposure time to FNA, even at lowest FNA concentration
  biomass (denitrification) activity recovery: almost negligible
[3]; lower exposure time, 8 h to FNA
  biomass (denitrification) activity recovery: displays a recovery
[4]; 48 h of exposure vs shorter, biggest difference at highest FNA concentrations
  live cell fraction, effect of exposure time: Smaller live cell fraction
[4]; exposure 8 h, 24 h, 48 h (FIG. 3)
  fraction of viable cells, dependency on FNA concentration: decreased with increasing FNA concentration
Secondary sludge
  NH4+ release rate, dependency on FNA concentration: decrease
AOB, NOB and OHOs
  reduction of NOB and OHO compared to AOB: significantly greater reduction in NOB
Denitrifying biomass [5]; FNA approximately 1 ppm for 48 hours
  loss of biomass activity: 99%
Denitrifying biomass [5]; [7]
  methanol consumption rate: 0.051 mg Methanol/gVSS*min
  nitrate consumption rate: 0.014 mg N—NO3^−/gVSS*min
Denitrifying biomass [5]; [8]
  methanol consumption rate: 0.0 mg Methanol/gVSS*min and 0 mg Methanol/gVSS*min
  nitrate consumption rate: 0.004 mg N—NO3^−/gVSS*min
Denitrifying biomass [5]; [9]
  methanol consumption rate, activity recovery: 0.133 mg Methanol/gVSS*min
  nitrate consumption rate, activity recovery: 0.004 mg N—NO3^−/gVSS*min
Denitrifying biomass [5]; [10]
  methanol consumption rate, activity recovery: 0.067 mg Methanol/gVSS*min
  nitrate consumption rate, activity recovery: 0.022 mg N—NO3^−/gVSS*min
Denitrifying biomass [5]; [11]
  methanol consumption rate, activity recovery: 0.235 mg Methanol/gVSS*min
  nitrate consumption rate, activity recovery: 0.089 mg N—NO3^−/gVSS*min
[6]; FNA reactor, steady state
  MLSS Predicted if FNA did not improve sludge degradability: 2369 mg/L
  MLVSS Predicted if FNA did not improve sludge degradability: 2274 mg/L
[6]; mass balance analysis of MLSS and MLVSS
  FNA treated sludge degraded in the reactor: approximately 75%
